Reference: US12448392B2, “Spiropiperidine derivatives” (89BIO LTD, priority 2016, dated 2025)
Counter-ions that a name gives are not always drawn. Like-named read-outs stand apart in the source and are kept apart here.

Target: T1, recombinant human baculovirus-expressed GST-tagged FASN (Homo sapiens, UniProt P49327)
T1 construct: GST
Experiment: biochemical

[1] = 5 nM FASN, 150 μM NADPH, 10 μM acetyl-CoA, 25 μM malonyl-CoA, 90 minutes incubation, read-out: IC50 data for Compounds of Formula I, Activity

T1 sequence (P49327 whole entry): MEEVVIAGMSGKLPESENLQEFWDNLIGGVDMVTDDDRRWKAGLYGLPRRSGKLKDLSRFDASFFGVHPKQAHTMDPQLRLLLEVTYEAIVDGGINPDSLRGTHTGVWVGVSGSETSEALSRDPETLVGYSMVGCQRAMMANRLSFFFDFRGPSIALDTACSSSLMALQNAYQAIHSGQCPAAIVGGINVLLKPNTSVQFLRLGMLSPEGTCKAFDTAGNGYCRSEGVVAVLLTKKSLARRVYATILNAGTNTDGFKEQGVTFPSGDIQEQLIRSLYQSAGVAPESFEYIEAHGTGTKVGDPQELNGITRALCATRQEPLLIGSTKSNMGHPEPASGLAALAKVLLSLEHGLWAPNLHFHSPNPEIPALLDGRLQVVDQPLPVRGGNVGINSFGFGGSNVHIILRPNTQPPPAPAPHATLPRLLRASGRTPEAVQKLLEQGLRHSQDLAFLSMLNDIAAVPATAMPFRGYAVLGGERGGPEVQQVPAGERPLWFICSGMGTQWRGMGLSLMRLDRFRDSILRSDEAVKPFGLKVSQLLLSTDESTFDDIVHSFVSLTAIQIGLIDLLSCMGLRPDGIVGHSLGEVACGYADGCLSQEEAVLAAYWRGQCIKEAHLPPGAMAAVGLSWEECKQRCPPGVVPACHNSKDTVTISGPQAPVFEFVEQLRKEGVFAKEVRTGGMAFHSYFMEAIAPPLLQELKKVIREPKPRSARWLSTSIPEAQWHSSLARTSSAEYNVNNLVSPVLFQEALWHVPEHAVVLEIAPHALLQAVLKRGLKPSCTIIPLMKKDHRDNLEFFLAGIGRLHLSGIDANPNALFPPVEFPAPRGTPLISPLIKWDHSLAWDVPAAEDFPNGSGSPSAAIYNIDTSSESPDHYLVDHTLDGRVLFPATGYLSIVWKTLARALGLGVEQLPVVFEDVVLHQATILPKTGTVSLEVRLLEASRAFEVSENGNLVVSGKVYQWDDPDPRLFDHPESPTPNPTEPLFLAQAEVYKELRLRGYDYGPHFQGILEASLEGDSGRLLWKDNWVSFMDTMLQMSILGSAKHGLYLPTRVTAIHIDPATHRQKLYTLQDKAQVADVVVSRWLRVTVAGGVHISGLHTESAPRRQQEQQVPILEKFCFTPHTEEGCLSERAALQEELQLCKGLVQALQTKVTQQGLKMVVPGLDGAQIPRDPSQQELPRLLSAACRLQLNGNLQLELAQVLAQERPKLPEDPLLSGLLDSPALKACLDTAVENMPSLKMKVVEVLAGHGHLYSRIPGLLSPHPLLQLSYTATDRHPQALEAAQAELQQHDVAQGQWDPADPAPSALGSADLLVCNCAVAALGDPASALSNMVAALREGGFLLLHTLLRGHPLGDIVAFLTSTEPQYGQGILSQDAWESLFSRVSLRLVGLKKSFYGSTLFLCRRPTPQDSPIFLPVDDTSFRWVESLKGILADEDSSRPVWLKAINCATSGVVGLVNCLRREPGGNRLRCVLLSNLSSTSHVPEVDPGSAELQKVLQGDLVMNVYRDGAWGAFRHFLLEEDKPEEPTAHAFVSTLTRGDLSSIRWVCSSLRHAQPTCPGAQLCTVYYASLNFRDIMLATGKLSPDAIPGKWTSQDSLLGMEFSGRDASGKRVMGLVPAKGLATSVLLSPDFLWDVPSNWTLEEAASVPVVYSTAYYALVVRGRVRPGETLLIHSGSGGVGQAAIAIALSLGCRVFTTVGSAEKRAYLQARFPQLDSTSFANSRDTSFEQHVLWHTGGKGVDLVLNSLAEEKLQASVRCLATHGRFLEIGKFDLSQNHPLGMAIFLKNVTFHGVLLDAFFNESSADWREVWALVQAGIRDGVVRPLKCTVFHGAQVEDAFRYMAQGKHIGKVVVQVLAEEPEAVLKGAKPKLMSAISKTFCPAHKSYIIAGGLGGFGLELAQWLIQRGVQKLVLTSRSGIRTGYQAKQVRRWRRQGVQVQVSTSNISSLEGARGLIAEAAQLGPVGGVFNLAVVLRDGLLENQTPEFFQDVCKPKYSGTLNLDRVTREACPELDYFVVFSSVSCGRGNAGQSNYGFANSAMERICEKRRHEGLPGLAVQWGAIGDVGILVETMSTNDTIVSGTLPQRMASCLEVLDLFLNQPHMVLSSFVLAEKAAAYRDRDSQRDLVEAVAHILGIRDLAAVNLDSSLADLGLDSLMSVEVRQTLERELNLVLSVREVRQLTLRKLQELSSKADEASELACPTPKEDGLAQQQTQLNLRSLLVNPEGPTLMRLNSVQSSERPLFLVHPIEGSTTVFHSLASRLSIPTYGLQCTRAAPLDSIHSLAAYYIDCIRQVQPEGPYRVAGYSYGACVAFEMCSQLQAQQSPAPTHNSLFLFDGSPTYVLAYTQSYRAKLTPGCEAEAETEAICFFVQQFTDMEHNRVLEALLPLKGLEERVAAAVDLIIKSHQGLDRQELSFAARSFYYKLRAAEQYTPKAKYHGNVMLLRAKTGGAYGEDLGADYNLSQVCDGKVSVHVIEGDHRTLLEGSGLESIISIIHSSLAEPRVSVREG

SMILES | IC50 | IC50 [1]
CCC(=O)N1CCC2(CC1)OCc1cc(-c3ccc4cccnc4c3Cl)ccc1O2 [Example 57, 1-[6-(8-Chloro-7-quinolyl)spiro[4H-1,3-benzodioxine-2,4′-piperidine]-1′-yl]propan-1-one] | 1 to 99 nM | –
CCONC(=O)N1CCC2(CCc3cc(-c4ccc5cnc(C)cc5c4)ccc3O2)CC1 [Example 207, N-Ethoxy-6-(3-methyl-6-isoquinolyl)spiro[chromane-2,4′-piperidine]-1′-carboxamide] | – | 1 to 99 nM
Cc1nccc2cc(-c3ccc4c(c3)CCC3(CCN(C(=O)NO)CC3)O4)ccc12 [Example 189, 6-(1-Methyl-6-isoquinolyl)spiro[chromane-2,4′-piperidine]-1′-carbohydroxamic acid] | – | 1000 to 10000 nM
Cc1c(-c2ccc3c(c2)COC2(CCN(C(N)=O)CC2)O3)cnc2ccccc12 [Example 132, 6-(4-Methyl-3-quinolyl)spiro[4H-1,3-benzodioxine-2,4′-piperidine]-1′-carboxamide] | 100 to 999 nM | –
O=C(C1CC1)N1CCC2(CCc3cc(-c4ccc5cccnc5c4Cl)ccc3O2)CC1 [Example 10, [6-(8-Chloro-7-quinolyl)spiro[chromane-2,4′-piperidine]-1′-yl]-cyclopropyl-methanone, HCl] | – | 1 to 99 nM
NC(=O)N1CCC2(CCc3cc(-c4cc5ccccc5o4)ccc3O2)CC1 [Example 235, 6-(Benzofuran-2-yl)spiro[chromane-2,4′-piperidine]-1′-carboxamide] | – | 1000 to 10000 nM
Cc1c(-c2ccc3c(c2)CCC2(CCN(C(N)=O)CC2)O3)ccc2ccc(=O)[nH]c12 [Example 172, 6-(8-Methyl-2-oxo-1H-quinolin-7-yl)spiro[chromane-2,4′-piperidine]-1′-carboxamide] | – | 1000 to 10000 nM
Cc1c(-c2ccc3c(c2)CCC2(CCN(C(=O)NO)CC2)O3)cnc2ccccc12 [Example 191, 6-(4-Methyl-3-quinolyl)spiro[chromane-2,4′-piperidine]-1′-carbohydroxamic acid] | – | 100 to 999 nM
CONC(=O)N1CCC2(CC1)Cc1cc(-c3ccc4ccnn4c3C)ccc1O2 [Example 170, N-Methoxy-5-(7-methylpyrazolo[1,5-a]pyridin-6-yl)spiro[3H-benzofuran-2,4′-piperidine]-1′-carboxamide] | – | 1000 to 10000 nM
CC(C)CNC(=O)N1CCC2(CCc3cc(-c4ccc5nccn5c4Cl)ccc3O2)CC1 [Example 177, 6-(5-Chloroimidazo[1,2-a]pyridin-6-yl)-N-isobutyl-spiro[chromane-2,4′-piperidine]-1′-carboxamide] | – | 1 to 99 nM
COc1c(-c2ccc3c(c2)CC2(CCN(C(=O)NO)CC2)O3)ccc2cccnc12 [Example 173, 5-(8-Methoxy-7-quinolyl)spiro[3H-benzofuran-2,4′-piperidine]-1′-carbohydroxamic acid] | – | 1000 to 10000 nM
Cc1c(-c2ccc3c(c2)CCC2(CCN(C(=O)NC(C)C)CC2)O3)ccc2cccnc12 [Example 98, N-Isopropyl-6-(8-methyl-7-quinolyl)spiro[chromane-2,4′-piperidine]-1′-carboxamide] | – | 100 to 999 nM
CONC(=O)N1CCC2(CCc3cc(-c4ccc5cccnc5c4Cl)ccc3O2)CC1 [Example 70, 6-(8-chloro-7-quinolyl)-N-methoxy-spiro[chromane-2,4′-piperidine]-1′-carboxamide] | – | 1 to 99 nM
Cc1c(-c2ccc3c(c2)CCC2(CCN(C(=O)NOC(C)C)CC2)O3)ccc2nccn12 [Example 108, N-Isopropoxy-6-(5-methylimidazo[1,2-a]pyridin-6-yl)spiro[chromane-2,4′-piperidine]-1′-carboxamide] | – | 1 to 99 nM
Cc1cc2c(cc1-c1ccc3cccnc3c1C)CCC1(CCN(C(N)=O)CC1)O2 [Example 244, 7-Methyl-6-(8-methyl-7-quinolyl)spiro[chromane-2,4′-piperidine]-1′-carboxamide] | – | 1000 to 10000 nM
O=C([C@H]1CCCO1)N1CCC2(CC1)OCc1cc(-c3ccccn3)ccc1O2 [Example 220, [6-(2-Pyridyl)spiro[4H-1,3-benzodioxine-2,4′-piperidine]-1′-yl]-[(2R)-tetrahydrofuran-2-yl]methanone, HCl] | 100 to 999 nM | –
CCONC(=O)N1CCC2(CC1)OCCc1cc(-c3ccc4cccnc4c3C)ccc1O2 [Example 79, N-Ethoxy-7-(8-methyl-7-quinolyl)spiro[4,5-dihydro-1,3-benzodioxepine-2,4′-piperidine]-1′-carboxamide] | 1 to 99 nM | –
CC(C)ONC(=O)N1CCC2(CCc3cc(-c4ccc5nccn5c4Cl)ccc3O2)CC1 [Example 179, 6-(5-Chloroimidazo[1,2-a]pyridin-6-yl)-N-isopropoxy-spiro[chromane-2,4′-piperidine]-1′-carboxamide] | – | 1 to 99 nM
Cc1c(-c2ccc3c(c2)COC2(CCN(C(=O)NOC(C)C)CC2)O3)ccc2cccnc12 [Example 123, N-Isopropoxy-6-(8-methyl-7-quinolyl)spiro[4H-1,3-benzodioxine-2,4′-piperidine]-1′-carboxamide] | 1 to 99 nM | –
Cc1c(-c2ccc3cccnc3c2C)ccc2c1CCC1(CCN(C(N)=O)CC1)O2 [Example 240, 5-Methyl-6-(8-methyl-7-quinolyl)spiro[chromane-2,4′-piperidine]-1′-carboxamide] | – | 1000 to 10000 nM

SMILES | IC50 | IC50 [1]
Cc1c(-c2ccc3c(c2)CCC2(CCN(C(=O)[C@H]4CCCO4)CC2)O3)ccc2cccnc12 [Example 8, [6-(8-Methyl-7-quinolyl)spiro[chromane-2,4′-piperidine]-1′-yl]-[(2R)-tetrahydrofuran-2-yl]methanone, HCl] | – | 1 to 99 nM
Cc1cccc2cc(-c3ccc4c(c3)CCC3(CCN(C(=O)C5CC5)CC3)O4)cnc12 [Example 13, Cyclopropyl-[6-(8-methyl-3-quinolyl)spiro[chromane-2,4′-piperidine]-1′-yl]-methanone, HCl] | – | 100 to 999 nM
CCNC(=O)N1CCC2(CC1)OCc1cc(-c3ccc4cnc(C)cc4c3)ccc1O2 [Example 202, N-Ethyl-6-(3-methyl-6-isoquinolyl)spiro[4H-1,3-benzodioxine-2,4′-piperidine]-1′-carboxamide] | 1 to 99 nM | –
CCNC(=O)N1CCC2(CC1)Cc1cc(-c3ccc4cccnc4c3OC)ccc1O2 [Example 163, N-Ethyl-5-(8-methoxy-7-quinolyl)spiro[3H-benzofuran-2,4′-piperidine]-1′-carboxamide] | – | 1000 to 10000 nM
Cc1cccc2cc(-c3ccc4c(c3)CCC3(CCN(C(=O)[C@H]5CCCO5)CC3)O4)cnc12 [Example 14, [6-(8-Methyl-3-quinolyl)spiro[chromane-2,4′-piperidine]-1′-yl]-[(2R)-tetrahydrofuran-2-yl]methanone, HCl] | – | 1 to 99 nM
CCC(=O)N1CCC2(CCc3cc(-c4cnc5c(C)cccc5c4)ccc3O2)CC1 [Example 12, 1-[6-(8-Methyl-3-quinolyl)spiro[chromane-2,4′-piperidine]-1′-yl]propan-1-one] | – | 1 to 99 nM
CONC(=O)N1CCC2(CC1)OCc1cc(-c3ccc4c(C)nccc4c3)cc(OC)c1O2 [Example 248] | 1000 to 10000 nM | –
NC(=O)N1CCC2(CCc3cc(-c4ccc5ncsc5c4)ccc3O2)CC1 [Example 74, 6-(1,3-benzothiazol-6-yl)spiro[chromane-2,4′-piperidine]-1′-carboxamide] | – | 1000 to 10000 nM
CONC(=O)N1CCC2(CC1)Cc1cc(-c3ccc4cccnc4c3C)ccc1O2 [Example 153, N-Methoxy-5-(8-methyl-7-quinolyl)spiro[3H-benzofuran-2,4′-piperidine]-1′-carboxamide] | – | 1000 to 10000 nM
CONC(=O)N1CCC2(CCc3cc(-c4ccc5cccnc5c4C)cc(F)c3O2)CC1 [Example 238, 8-Fluoro-N-methoxy-6-(8-methyl-7-quinolyl)spiro[chromane-2,4′-piperidine]-1′-carboxamide] | – | 1 to 99 nM
CCNC(=O)N1CCC2(CCc3cc(-c4ccc5cnc(C)cc5c4)ccc3O2)CC1 [Example 208, N-Ethyl-6-(3-methyl-6-isoquinolyl)spiro[chromane-2,4′-piperidine]-1′-carboxamide] | – | 100 to 999 nM
CCONC(=O)N1CCC2(CCc3cc(-c4cnc5ccccc5c4C)ccc3O2)CC1 [Example 181, N-Ethoxy-6-(4-methyl-3-quinolyl)spiro[chromane-2,4′-piperidine]-1′-carboxamide] | – | 1 to 99 nM
CCOC(=O)N1CCC2(CC1)OCc1cc(-c3ccc4cccnc4c3Cl)ccc1O2 [Example 137, Ethyl 6-(8-chloro-7-quinolyl)spiro[4H-1,3-benzodioxine-2,4′-piperidine]-1′-carboxylate] | 1000 to 10000 nM | –
COc1c(-c2ccc3c(c2)CC2(CCN(C(=O)NOC4CCCCO4)CC2)O3)ccc2cccnc12 (stereo not shown) [Example 168, 5-(8-Methoxy-7-quinolyl)-N-tetrahydropyran-2-yloxy-spiro[3H-benzofuran-2,4′-piperidine]-1′-carboxamide] | – | 1000 to 10000 nM
CONC(=O)N1CCC2(CCc3cc(-c4ccc5cccnc5c4OC)ccc3O2)CC1 [Example 210, N-Methoxy-6-(8-methoxy-7-quinolyl)spiro[chromane-2,4′-piperidine]-1′-carboxamide] | – | 1 to 99 nM
COc1c(-c2ccc3c(c2)COC2(CCN(C(=O)C4CC4)CC2)O3)ccc2cccnc12 [Example 49, Cyclopropyl-[6-(8-methoxy-7-quinolyl)spiro[4H-1,3-benzodioxine-2,4′-piperidine]-1′-yl]methanone] | 1 to 99 nM | –
Cc1c(-c2ccc3c(c2)CCC2(CCN(C(=O)[C@H]4CCCO4)CC2)O3)cnc2ccccc12 [Example 4, [6-(4-Methyl-3-quinolyl)spiro[chromane-2,4′-piperidine]-1′-yl]-[(2R)-tetrahydrofuran-2-yl]methanone, HCl] | – | 1 to 99 nM
CCC(=O)N1CCC2(CCc3cc(-c4cnc5ccccc5c4)ccc3O2)CC1 [Example 47, 1-[6-(3-Quinolyl)spiro[chromane-2,4′-piperidine]-1′-yl]propan-1-one] | – | 1 to 99 nM
Cc1c(-c2ccc3c(c2)CC2(CCN(C(N)=O)CC2)O3)cnc2ccccc12 [Example 159, 5-(4-Methyl-3-quinolyl)spiro[3H-benzofuran-2,4′-piperidine]-1′-carboxamide] | – | 1000 to 10000 nM
CCONC(=O)N1CCC2(CC1)OCc1cc(-c3cnc4ccccc4c3C)ccc1O2 [Example 139, N-Ethoxy-6-(4-methyl-3-quinolyl)spiro[4H-1,3-benzodioxine-2,4′-piperidine]-1′-carboxamide] | 1 to 99 nM | –
